Measured values: ChEMBL document CHEMBL4680302, “Biologic-like In Vivo Efficacy with Small Molecule Inhibitors of TNFα Identified Using Scaffold Hopping and Structure-Based Drug Design Approaches” (J Med Chem, 2020)

Experiments:
Mus musculus [1] = assay: Antiarthritic activity against anticollagen antibody-induced arthritis BALB/c mouse model assessed as reduction in LPS-induced cells expressing B220 receptor administered orally twice daily followed by LPS stimulation after 6 hrs measured on day 12 by RT-PCR analysis; type: functional, organism-based; details: dose 2-10 mg/kg, time 12.0 day
[2] = Total AUC in mouse at 0.5 mg/kg, iv; type: ADME, organism-based; set-up: route intravenous, time AUCmax, dose 0.5 mg/kg; details: in vivo
CD40 ligand = target: T1, CD40 ligand (Homo sapiens, UniProt P29965); assay: Inhibition of CD40L (unknown origin)
T1 sequence (P29965 whole entry): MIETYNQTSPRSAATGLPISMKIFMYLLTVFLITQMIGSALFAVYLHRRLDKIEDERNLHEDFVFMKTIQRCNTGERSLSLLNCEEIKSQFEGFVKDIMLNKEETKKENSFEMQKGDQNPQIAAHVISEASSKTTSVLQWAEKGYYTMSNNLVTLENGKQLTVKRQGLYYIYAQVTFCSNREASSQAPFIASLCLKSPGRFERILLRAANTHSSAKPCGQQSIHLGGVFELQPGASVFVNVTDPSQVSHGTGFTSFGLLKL

[3] = Half-life in mouse at 0.5 mg/kg, iv; type: ADME, organism-based; details: in vivo
[4] = Protein binding in rat assessed as unbound fraction; type: ADME
[5] = Metabolic stability in human liver microsomes assessed as parent compound remaining after 10 mins; type: ADME, Microsome; details: read-out: Stabilty
Cytochrome P450 3A4 = Cytochrome P450 3A4 (Homo sapiens, UniProt P08684); assay: Inhibition of recombinant CYP3A4 (unknown origin) in presence of BFC as substrate; type: ADME
Sequence of Cytochrome P450 3A4 (P08684 whole entry): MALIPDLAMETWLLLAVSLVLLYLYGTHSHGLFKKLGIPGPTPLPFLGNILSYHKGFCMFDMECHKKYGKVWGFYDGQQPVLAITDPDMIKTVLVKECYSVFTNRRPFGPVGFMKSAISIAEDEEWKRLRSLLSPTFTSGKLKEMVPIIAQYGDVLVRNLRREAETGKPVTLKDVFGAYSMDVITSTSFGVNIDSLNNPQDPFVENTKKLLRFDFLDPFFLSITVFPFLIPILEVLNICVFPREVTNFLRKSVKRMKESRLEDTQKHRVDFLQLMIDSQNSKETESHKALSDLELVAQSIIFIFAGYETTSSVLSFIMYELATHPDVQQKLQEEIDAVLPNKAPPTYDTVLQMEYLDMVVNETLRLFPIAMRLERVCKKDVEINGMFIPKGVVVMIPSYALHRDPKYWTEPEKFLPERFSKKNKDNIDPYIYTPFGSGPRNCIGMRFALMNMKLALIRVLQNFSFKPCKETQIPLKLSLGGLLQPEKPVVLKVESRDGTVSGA

Mus musculus [6] = assay: Antiarthritic activity against anticollagen antibody-induced arthritis BALB/c mouse model assessed as reduction in LPS-induced cells expressing CD3 receptor administered orally twice daily followed by LPS stimulation after 6 hrs measured on day 12 by RT-PCR analysis; type: functional, organism-based; details: dose 2-10 mg/kg, time 12.0 day
[7] = Protein binding in mouse assessed as unbound fraction; type: ADME
[8] = Metabolic stability in mouse liver microsomes assessed as parent compound remaining after 10 mins; type: ADME, Microsome; details: read-out: Stabilty
Mus musculus [9] = assay: Antiarthritic activity against anticollagen antibody-induced arthritis BALB/c mouse model assessed as reduction in swelling of digits administered orally twice a day followed by LPS stimulation after 6 hrs measured until day 12; type: functional, organism-based; details: dose 2-10 mg/kg, time 12.0 day
Mus musculus [10] = assay: Antiarthritic activity against anticollagen antibody-induced arthritis BALB/c mouse model assessed as reduction in LPS-induced CXCL12 levels administered orally twice daily followed by LPS stimulation after 6 hrs measured on day 12 by RT-PCR analysis; type: functional, organism-based; details: dose 2-10 mg/kg, time 12.0 day
[11] = Protein binding in human assessed as unbound fraction; type: ADME
[12] = Selectivity ratio of drug exposure in anticollagen antibody-induced arthritis BALB/c mouse model at 10 mg/kg, po BID for 12 days to IC50 for inhibition of human TNFalpha expressed in HEK-Blue-CD40L cells assessed as inhibition of NFkappaB activation by quanti-blue based SEAP assay
Mus musculus [13] = assay: Antiarthritic activity against anticollagen antibody-induced arthritis BALB/c mouse model assessed as reduction in LPS-induced MCP-1 levels administered orally twice daily followed by LPS stimulation after 6 hrs measured on day 12 by RT-PCR analysis; type: functional, organism-based; details: dose 2-10 mg/kg, time 12.0 day
Tumor necrosis factor [14] = target: T2, Tumor necrosis factor (Homo sapiens, UniProt P01375); assay: Inhibition of exogenous human TNFalpha in HEK-Blue-CD40L cells assessed as reduction in TNF-alpha-induced NFkappaB activation incubated for 18 hrs by quanti-blue based SEAP assay; type: cell-based
T2 sequence (P01375 whole entry): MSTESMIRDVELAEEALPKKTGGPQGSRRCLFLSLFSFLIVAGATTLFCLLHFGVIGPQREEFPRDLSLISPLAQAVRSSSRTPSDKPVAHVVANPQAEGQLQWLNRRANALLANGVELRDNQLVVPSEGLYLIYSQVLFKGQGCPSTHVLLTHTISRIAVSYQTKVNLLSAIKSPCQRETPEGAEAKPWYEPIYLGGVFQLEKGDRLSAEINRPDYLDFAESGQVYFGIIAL

[15] = Selectivity ratio of drug exposure in TNFalpha-induced C57BL/6J mouse at 25 mg/kg, po at 3 hrs post dose to IC50 for inhibition of human TNFalpha expressed in HEK-Blue-CD40L cells assessed as inhibition of NFkappaB activation by quanti-blue based SEAP assay
Mus musculus [16] = assay: Antiarthritic activity against anticollagen antibody-induced arthritis BALB/c mouse model assessed as reduction in LPS-induced IL-1beta production administered orally twice daily followed by LPS stimulation after 6 hrs measured on day 12 by RT-PCR analysis; type: functional, organism-based; details: dose 2-10 mg/kg, time 12.0 day
Mus musculus [17] = assay: Antiarthritic activity against anticollagen antibody-induced arthritis BALB/c mouse model assessed as reduction in LPS-induced TNFalpha production administered orally twice daily followed by LPS stimulation after 6 hrs measured on day 12 by RT-PCR analysis; type: functional, organism-based; details: dose 2-10 mg/kg, time 12.0 day
[18] = Drug exposure in TNFalpha-induced C57BL/6J mouse at 5 mg/kg, po pretreated with compound prior to 1 hr of TNFalpha challenge and measured at 3 hrs post dose; type: ADME, organism-based; details: in vivo, read-out: Drug uptake
Mus musculus [19] = assay: Antiarthritic activity against anticollagen antibody-induced arthritis BALB/c mouse model assessed as reduction in paw inflammation administered orally twice a day followed by LPS stimulation after 6 hrs measured until day 12; type: functional, organism-based; details: dose 2-10 mg/kg, time 12.0 day
[20] = target: Voltage-gated inwardly rectifying potassium channel KCNH2 (Homo sapiens, UniProt Q12809); assay: Inhibition of human ERG by patch clamp assay
Sequence of Voltage-gated inwardly rectifying potassium channel KCNH2 (Q12809 whole entry): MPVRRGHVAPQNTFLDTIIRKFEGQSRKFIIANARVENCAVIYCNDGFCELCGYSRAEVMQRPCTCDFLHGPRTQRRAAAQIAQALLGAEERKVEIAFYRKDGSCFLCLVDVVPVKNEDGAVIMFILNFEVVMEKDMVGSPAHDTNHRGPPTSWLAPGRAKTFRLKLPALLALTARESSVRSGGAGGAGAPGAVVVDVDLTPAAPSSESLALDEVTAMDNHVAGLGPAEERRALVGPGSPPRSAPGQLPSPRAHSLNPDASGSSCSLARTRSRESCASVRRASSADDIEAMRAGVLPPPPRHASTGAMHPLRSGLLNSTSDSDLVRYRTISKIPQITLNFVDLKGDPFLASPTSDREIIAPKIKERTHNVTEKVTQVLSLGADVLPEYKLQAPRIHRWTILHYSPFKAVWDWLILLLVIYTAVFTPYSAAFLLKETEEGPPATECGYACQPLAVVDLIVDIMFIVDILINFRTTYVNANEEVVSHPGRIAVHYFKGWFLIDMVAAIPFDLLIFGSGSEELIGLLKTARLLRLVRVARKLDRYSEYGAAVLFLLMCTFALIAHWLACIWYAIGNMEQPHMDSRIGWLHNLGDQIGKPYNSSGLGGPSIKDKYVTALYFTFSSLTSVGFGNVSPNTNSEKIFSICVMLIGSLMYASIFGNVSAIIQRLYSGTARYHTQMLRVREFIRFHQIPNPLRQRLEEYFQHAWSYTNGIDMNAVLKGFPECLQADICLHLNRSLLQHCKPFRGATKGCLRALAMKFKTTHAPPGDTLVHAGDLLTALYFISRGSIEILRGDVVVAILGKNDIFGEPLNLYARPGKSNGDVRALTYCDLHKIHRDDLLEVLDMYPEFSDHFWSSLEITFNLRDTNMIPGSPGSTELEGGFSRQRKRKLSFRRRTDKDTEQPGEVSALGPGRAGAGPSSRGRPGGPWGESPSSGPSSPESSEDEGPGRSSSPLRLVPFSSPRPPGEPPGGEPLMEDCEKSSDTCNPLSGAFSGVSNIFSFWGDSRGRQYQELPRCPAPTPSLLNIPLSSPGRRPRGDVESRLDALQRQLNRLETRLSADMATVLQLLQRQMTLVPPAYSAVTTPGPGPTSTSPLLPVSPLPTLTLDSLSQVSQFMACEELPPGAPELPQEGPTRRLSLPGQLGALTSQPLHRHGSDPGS

Cytochrome P450 2C8 = target: T3, Cytochrome P450 2C8 (Homo sapiens, UniProt P10632); assay: Inhibition of recombinant CYP2C8 (unknown origin); type: ADME
T3 sequence (P10632 whole entry): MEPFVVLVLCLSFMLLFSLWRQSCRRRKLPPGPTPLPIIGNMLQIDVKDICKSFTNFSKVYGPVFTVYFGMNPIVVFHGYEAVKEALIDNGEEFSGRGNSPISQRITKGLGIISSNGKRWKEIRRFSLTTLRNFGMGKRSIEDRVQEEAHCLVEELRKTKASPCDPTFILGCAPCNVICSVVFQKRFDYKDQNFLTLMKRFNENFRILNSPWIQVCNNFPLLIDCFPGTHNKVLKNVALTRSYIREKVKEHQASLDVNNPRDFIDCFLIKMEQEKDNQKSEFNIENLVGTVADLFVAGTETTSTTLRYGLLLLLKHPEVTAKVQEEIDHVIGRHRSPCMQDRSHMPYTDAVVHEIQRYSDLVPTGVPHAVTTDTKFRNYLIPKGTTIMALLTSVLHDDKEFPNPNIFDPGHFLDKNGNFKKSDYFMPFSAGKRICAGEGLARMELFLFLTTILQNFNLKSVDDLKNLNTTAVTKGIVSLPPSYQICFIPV

Tumor necrosis factor [21] = target: T2, Tumor necrosis factor; assay: Displacement of fluorescent labeled probe from human recombinant His-tagged TNFalpha (77 to 233 residues) expressed in Escherichia coli preincubated for 1 hr followed by fluorogenic probe addition and measured after 3 hrs by HTRF assay
Mus musculus [22] = assay: Antiarthritic activity against anticollagen antibody-induced arthritis BALB/c mouse model assessed as reduction in LPS-induced IL-6 production administered orally twice daily followed by LPS stimulation after 6 hrs measured on day 12 by RT-PCR analysis; type: functional, organism-based; details: dose 2-10 mg/kg, time 12.0 day
[23] = Clearance in mouse at 0.5 mg/kg, iv; type: ADME, organism-based; details: in vivo
[24] = Drug exposure in TNFalpha-induced C57BL/6J mouse at 25 mg/kg, po pretreated with compound prior to 1 hr of TNFalpha challenge and measured at 3 hrs post dose; type: ADME, organism-based; details: in vivo, read-out: Drug uptake
Tumor necrosis factor [25] = target: T2, Tumor necrosis factor; assay: Inhibition of human recombinant His-tagged TNF-alpha-mediated E-selectin expression in HUVEC cells preincubated for 30 mins in presence of TNFalpha and measured after 3 hrs by flow cytometry analysis; type: cell-based

## Cc1nc2cc(F)c(-c3cnc(C(C)(C)O)nc3)nc2c(N[C@H](C)c2cc(C#N)ccc2F)c1Cl
Mus musculus [1]
  Activity: Dose-dependent effect
[2]
  AUC: 2.5 µM·h
CD40 ligand
  IC50: > 10000 nM
[3]
  half-life: 6.2 h
[4]
  Fu: 0.4%
[5]
  remaining at 10 min: 95%
Cytochrome P450 3A4
  IC50: > 20000 nM
Mus musculus [6]
  Activity: Dose-dependent effect
[7]
  Fu: 0.6%
[8]
  remaining at 10 min: 86%
Mus musculus [9]
  Activity: Dose-dependent effect
Mus musculus [10]
  Activity: Dose-dependent effect
[11]
  Fu: 0.35%
[12]
  Selectivity ratio: 4.4
Mus musculus [13]
  Activity: Dose-dependent effect
Tumor necrosis factor [14]
  IC50: 27 nM
[15]
  Selectivity ratio: 7
Mus musculus [16]
  Activity: Dose-dependent effect
Mus musculus [17]
  Activity: Dose-dependent effect
[18]
  concentration at 3 h: 470 nM
Mus musculus [19]
  Activity: Dose-dependent effect
[20]
  IC50: 5600 nM
Cytochrome P450 2C8
  IC50: > 6700 nM
Tumor necrosis factor [21]
  IC50: 25 nM
Mus musculus [22]
  Activity: Dose-dependent effect
[23]
  clearance: 6.6 mL/min/kg
[24]
  concentration at 3 h: 1860 nM
Tumor necrosis factor [25]
  IC50: 30 nM
